Laboratory results: patent US20220356174A1, “PYRIDIN-2-ONE COMPOUNDS USEFUL AS SMARCA2 ANTAGONISTS” (Epizyme, Inc., priority 2018, published 2022)
Marks after values point to notes of the source that are not given here.

Tested on: A549 subcutaneous xenograft
Experiment: Efficacy study in subcutaneous A549 xenograft model (tumor volume, tumor weight, TGI)
Type: in vivo, BALB/c nude mice
Details: for Volume-based TGI(%) / Weight-based TGI(%): Day 21, P < 0.001
Description: The efficacy of compound 82c was studied in vivo for the treatment of A549 subcutaneous xenograft model in BALB/c nude mice. Seventy-five BALB/c nude female mice were injected cell A549 at 1×10^7 per mouse.
Fifty mice were selected and assigned into five groups using randomized block design based upon their tumor volumes and 10 mice per group. The 5 groups were treated p.o. with vehicle (0.5% NaCMC 0.1% Tween pH4), compound 82c 5 mg/kg BIDx21, 12.5 mg/kg BIDx10/QDx11, 25 mg/kg BIDx7/QDx14 and 50 mg/kg QDx10/3 days off/30 mg/kg QDx8.
All mice from 12.5 mg/kg BID were adjusted from BID to QD from treatment Day 11 until to the end of the study. #36˜#40 mice from group 25 mg/kg BID were compound administration holiday due to mice body weight loss. All mice from group 25 mg/kg BID were adjusted from BID to QD from treatment Day 8. All mice from group 50 mg/kg QD were compound administration holiday from Day 11 to Day 13 due to mice body weight loss and this group was adjusted from 50 mg/kg to 30 mg/kg until the end of the study.
Tumor Inoculation. Each mouse was inoculated subcutaneously at the right flank with A549 tumor cells (1×10^7 cells/mouse) in 0.2 mL of base media (F12K) for tumor development. The treatments were started when the tumor size reached 126.94 mm^3 for the tumor efficacy study (Day 14 post inoculation). Fifty tumor-bearing mice were block randomized into 5 groups with 10 mice in each.
Tumor Measurements and Endpoints. The major endpoint was tumor growth delay or cure. Tumor size was measured twice weekly in two dimensions using a caliper, and the volume was expressed in mm^3 using the formula: V=0.5 a×b^2 where a and b were the long and short diameters of the tumor, respectively. The tumor size was then used for calculations of T/C (%) values. T/C (%) was calculated according to the following equation: T/C (%)=TRTV/CRTV×[…] TRTV=TVtreatment-Dn/TVtreatment-D1, CRTV=TVcontrol-Dn/TVcontrol-D1, T/C (%)<42%, it was considered to be effective. The tumor size was then used for calculations of TGI (%) values. TGI (%) was calculated according to the following equation: TGI (%)=(1−(TVTreatment/Dx−TVTreatment/D1)/(TVControl/Dx−TVControl/D1))×100%, TGI[…]58 means this medicine is effective. The tumor weight was then used for calculations of TGI (%) values. TGI (%) was calculated according to the following equation: TGI (%)=(1−TWTreatment/TWControl)×100%
Statistical Analysis. Summary statistics, including mean and the standard error of the mean (SEM), were provided for the tumor volumes of each group at each time point. Statistical analyses of difference in tumor volumes among the groups were conducted on Day 21 after the last dose. Statistical analysis of difference in tumor volume and tumor weight among the groups was conducted. All data was analyzed using GraphPad Prism software. P<0.05 was considered to be statistically significant. A two-way ANOVA combined with Bonferroni post-test was performed to compare tumor volumes among vehicle and all treatment groups. A one-way ANOVA combined with Dunnett's Multiple Comparison Test to compare tumor weight among vehicle and all treatment groups.

[1] = 50 mg/kg QD×10, 3 days off, 30 mg/kg QD×8, p.o.

`N#Cc1cc(C(=O)Nc2cc(F)c(=O)n(CC(F)F)c2)sc1C(F)(F)F` [Compound 82c, 4-cyano-N-[1-(2,2-difluoroethyl)-5-fluoro-6-oxopyridin-3-yl]-5-(trifluoromethyl)thiophene-2-carboxamide] was tested, and the “Tumor Volume (mm^3), Day 21” value (5 mg/kg BID×21, p.o.) was 737.75 ± 78.79 mm^3, the “Tumor Weight (g), Day 21” value (5 mg/kg BID×21, p.o.) was 0.773 ± 0.052 g and the “Volume-based TGI(%)” value (5 mg/kg BID×21, p.o.) was 57.01* %. For the same compound, the “Weight-based TGI(%)” value (5 mg/kg BID×21, p.o.) was 47.23* %, the “Tumor Volume (mm^3), Day 21” value (12.5 mg/kg BID×10 QD×11, p.o.) was 579.14 ± 59.39 mm^3 and the “Tumor Weight (g), Day 21” value (12.5 mg/kg BID×10 QD×11, p.o.) was 0.609 ± 0.063 g. For the same compound, the “Volume-based TGI(%)” value (12.5 mg/kg BID×10 QD×11, p.o.) was 68.31* %, the “Weight-based TGI(%)” value (12.5 mg/kg BID×10 QD×11, p.o.) was 58.44* % and the “Tumor Volume (mm^3), Day 21” value (25 mg/kg BID×7 QD×14, p.o.) was 469.53 ± 70.97 mm^3. The “Tumor Weight (g), Day 21” value (25 mg/kg BID×7 QD×14, p.o.) was 0.509 ± 0.077 g, the “Volume-based TGI(%)” value (25 mg/kg BID×7 QD×14, p.o.) was 75.87* % and the “Weight-based TGI(%)” value (25 mg/kg BID×7 QD×14, p.o.) was 65.26* %. For the same compound, the “Tumor Volume (mm^3), Day 21” value [1] was 461.87 ± 60.61 mm^3, the “Tumor Weight (g), Day 21” value [1] was 0.496 ± 0.058 g and the “Volume-based TGI(%)” value [1] was 76.56* %. For the same compound, the “Weight-based TGI(%)” value [1] was 66.17* %.
